Assay results as given in patent US20260083676A1, “SPRAY-DRIED AMORPHOUS SOLID DISPERSIONS AND METHOD FOR PREPARATION” (Merck Patent GMbH, priority 2022, published 2026).

Assays:
[1] = X-ray powder diffraction and DSC of spray-dried products; format: physicochemical; conditions: raw material and spray dried dispersion with PVA 3-82; FIG. 24 to 26
Procedure: (§1) Diffractograms of powders were measured using an Miniflex 600 X-ray diffractometer (Rigaku, Japan) with CuKα radiation (λ=1.54 A). Samples were scanned in reflectance mode from 3° to 50° 2θ (deg), with a scan speed of 10° 2θ (deg)/min and a step size of 0.020° 2θ (deg) and results are shown in FIG. 2. The acceleration voltage and current are 45 kV and 15 mA.
The DSC thermograms of the samples as shown in FIG. 3 were collected using a DSC 3 (METTLER, U.S.) under a nitrogen gas flow of 50 ml/min. A total of 2-5 mg sample powder was filled into an aluminum Tzero pan (40 μL) and sealed with an aluminum Tzero lid. The sample was analyzed at a heating rate of 5° C./min from −25° C. to 230° C.
Spray-drying of ASDs has been prepared as described in Example 2, XRD measurements have been performed as described in Example 1.
as §1, with “(deg).” for “(deg) and results are shown in FIG. 2.”

[2] = Dissolution measurement of PROTAC ARV-110 ASD in phosphate buffer pH 6.8; format: physicochemical; conditions: phosphate buffer pH 6.8, room temperature, 0.2 mg/ml, 120 minutes; FIG. 23
Procedure: For PROTAC ARV-110, the dissolution of the samples was determined at room temperature in phosphate buffer pH 6.8 as dissolution medium. 5 mg of bulk drug or spray dried powder samples equivalent to 5 mg of drug were weighted and placed into a 100 ml of Erlenmeyer flask, subsequently a magnetic stirring bar was added to the Erlenmeyer flask and stirred at 200 rpm, then 25 ml of dissolution medium was added. (concentration: 0.2 mg/ml)
At predetermined time points (5, 10, 20, 40, 60, 90, 120 min), 500 μl of sample were withdrawn from the dissolution vessels and immediately replaced by 500 μl of fresh dissolution medium. The dissolution samples were then filtered through a 0.45 μm filter. The sample is diluted with Eluent B (1:1). Finally, the samples were analyzed towards drug content using HPLC.
A C8-Column (Waters XBridge Column C8, 4.6×50 mm, 3.5 μm) column was used for the quantification.
The eluents are composed as follows: Eluent A: 0.1% formic acid in water; Eluent B: 0.1% formic acid in acetonitrile. Method: linear gradient of 10% to 90% Eluent B in 2 minutes at 1.7 ml/min flow rate.

## N#Cc1ccc(O[C@H]2CC[C@H](NC(=O)c3ccc(N4CCC(CN5CCN(c6cc7c(cc6F)C(=O)N(C6CCC(=O)NC6=O)C7=O)CC5)CC4)nn3)CC2)cc1Cl (some centres unmarked) [ARV-110]
[1]
  solid state (XRD): crystalline
[2]
  dissolution: neither the raw PROTAC 1, PROTAC 2 nor ARV110 show any measurable dissolution
